Data reported in PMC7415729 (Pharmacology, biochemistry, and behavior, 2020).

Columns and labels:
C57BL/6 mice [1] = assay: Cannabinoid tetrad: locomotor activity; assay type: in vivo, mouse; conditions: for decrease of locomotor activity below the vehicle control condition: highest tested dose
C57BL/6 mice [2] = assay: Cannabinoid tetrad: catalepsy; assay type: in vivo, mouse
C57BL/6 mice [3] = assay: Cannabinoid tetrad: hypothermia; assay type: in vivo, mouse; conditions: for reduction of rectal temperature below the physiological range: highest tested dose
C57BL/6 mice [4] = assay: Cannabinoid tetrad: antinociception; assay type: in vivo, mouse; conditions: for tail withdrawal latency, % of the maximum: maximal latency 10 sec
C57BL/6 mice [5] = assay: Radiotelemetry of core temperature with 1-ABT pretreatment; assay type: in vivo, mouse
CB1 receptors [6] = molecular target: T1, CB1 receptors (Mus musculus, UniProt P47746); assay: Competition receptor binding vs [3H]CP-55,940 in mouse brain membranes; conditions: pKi, displacement of 0.2 nM [3H]CP-55,940, mouse brain membranes, N=3
[7] = tested on: HLM (human liver microsomes); assay: Oxidative metabolism by human microsomes; assay type: in vitro ADME; conditions: 50 μM 5F-AKB48, mixed gender HLM 1 μg/μl, 60 min
CB1 receptors [8] = molecular target: T1, CB1 receptors; assay: [35S]GTPγS binding; conditions: for EC50: N=3
[9] = tested on: HIM (human intestinal microsomes); assay: Oxidative metabolism by human microsomes; assay type: in vitro ADME; conditions: 50 μM 5F-AKB48, HIM 1 μg/μl, 60 min
[10] = tested on: HBM (human brain microsomes); assay: Oxidative metabolism by human microsomes; assay type: in vitro ADME; conditions: 50 μM 5F-AKB48, HBM 1 μg/μl, 60 min
[11] = rimonabant 10.0 mg/kg i.p. before 3.2 mg/kg 5F-AKB48
[12] = rimonabant 10.0 mg/kg i.p. before 32 mg/kg Δ9-THC
[13] = 5F-AKB48 3.2 mg/kg, mice pretreated with 100 mg/kg 1-ABT
[14] = 5F-AKB48 3.2 mg/kg, vehicle-pretreated mice

T1 sequence (P47746 whole entry): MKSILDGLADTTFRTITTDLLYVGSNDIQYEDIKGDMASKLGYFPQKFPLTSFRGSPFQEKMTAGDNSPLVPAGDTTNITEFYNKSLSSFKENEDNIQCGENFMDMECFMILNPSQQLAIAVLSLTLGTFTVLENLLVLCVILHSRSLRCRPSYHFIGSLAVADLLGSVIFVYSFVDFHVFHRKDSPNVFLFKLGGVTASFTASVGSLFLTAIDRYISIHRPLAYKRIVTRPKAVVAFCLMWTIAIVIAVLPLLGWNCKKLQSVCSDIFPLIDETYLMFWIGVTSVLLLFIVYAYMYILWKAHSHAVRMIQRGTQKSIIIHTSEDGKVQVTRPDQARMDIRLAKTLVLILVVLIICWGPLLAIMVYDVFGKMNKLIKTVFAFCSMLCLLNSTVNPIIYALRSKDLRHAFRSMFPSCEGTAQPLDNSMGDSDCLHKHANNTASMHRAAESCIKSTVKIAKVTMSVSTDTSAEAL

SMILES: CCCCCc1cc(O)c2c(c1)OC(C)(C)[C@@H]1CCC(C)=C[C@@H]21 [Δ^9-THC, Δ^9-tetrahydrocannabinol]
- decrease of locomotor activity below the vehicle control condition (C57BL/6 mice [1]; Δ9-THC 32 mg/kg i.p.): approximately 5 fold
- duration of cataleptic effects (still apparent) (C57BL/6 mice [2]; Δ9-THC 32 mg/kg i.p.): ≥ 6 h
- horizontal bar latency (C57BL/6 mice [2]; Δ9-THC 32 mg/kg i.p., by 15 min post-injection, 30 sec maximum): ~30 s
- duration of hypothermic effects (still apparent after drug administration) (C57BL/6 mice [3]; Δ9-THC 32 mg/kg i.p.): ≥ 6 h
- reduction of rectal temperature below the physiological range (C57BL/6 mice [3]; Δ9-THC 32 mg/kg i.p.): approximately 4 °
- duration of antinociceptive effects (still apparent) (C57BL/6 mice [4]; Δ9-THC 32 mg/kg i.p.): at least 6 hours
- tail withdrawal latency, % of the maximum (C57BL/6 mice [4]; Δ9-THC 32 mg/kg i.p., by 30 min post-injection): approximately 90%

SMILES: Nn1nnc2ccccc21 [1-ABT, reference compound]
- effect on core temperature (C57BL/6 mice [5]; 100 mg/kg 1-ABT alone, 2 hours): no systematic changes in temperature

SMILES: Cc1c(C(=O)NN2CCCCC2)nn(-c2ccc(Cl)cc2Cl)c1-c1ccc(Cl)cc1 [rimonabant]
- effect of prior rimonabant on hypolocomotor effects of 5F-AKB48 (C57BL/6 mice [1]; [11]): partially attenuated
- effect of prior rimonabant on hypolocomotor effects of Δ9-THC (C57BL/6 mice [1]; [12]): partially attenuated
- effect of prior rimonabant on cataleptic effects of 5F-AKB48 (C57BL/6 mice [2]; [11]): completely blocked
- effect of prior rimonabant on cataleptic effects of Δ9-THC (C57BL/6 mice [2]; [12]): completely blocked
- effect of prior rimonabant on hypothermic effects of 5F-AKB48 (C57BL/6 mice [3]; [11]): completely blocked
- effect of prior rimonabant on hypothermic effects of Δ9-THC (C57BL/6 mice [3]; [12]): completely blocked
- effect of prior rimonabant on antinociceptive effects of 5F-AKB48 (C57BL/6 mice [4]; [11]): completely blocked
- effect of prior rimonabant on antinociceptive effects of Δ9-THC (C57BL/6 mice [4]; [12]): completely blocked

SMILES: O=C(NC12CC3CC(CC(C3)C1)C2)c1nn(CCCCCF)c2ccccc12 [5F-AKB48, N-(adamantan-1-yl)-1-(5-fluoropentyl)-1H-indazole-3-carboxamide]
- Ki (CB1 receptors [6]): 0.665 nM
- decrease of locomotor activity below the vehicle control condition (C57BL/6 mice [1]; 5F-AKB48 3.2 mg/kg i.p.): approximately 5 fold
- production of hydroxylated metabolites [7]: highest amount
- G protein activation by 1 μM compound on co-incubation with rimonabant (CB1 receptors [8]; 1 μM compound + rimonabant 100 nM, mouse brain membranes): complete reversal
- EC50 (CB1 receptors [8]; pEC50, [35S]GTPγS binding, mouse brain membranes): 6.24 nM
- EC50 (CB1 receptors [8]; potency (EC50), [35S]GTPγS binding, mouse brain membranes 25 μg): 7.7 nM
- Emax (CB1 receptors [8]; read-out: Emax, increase of [35S]GTPγS binding): 182%
- oxidative activity / metabolite production [9]: significant amount of activity
- oxidative activity [10]: did not show any activity
- time by which cataleptic effects largely resolved (C57BL/6 mice [2]; 5F-AKB48 3.2 mg/kg i.p.): ≤ 3 h
- horizontal bar latency (C57BL/6 mice [2]; 5F-AKB48 3.2 mg/kg i.p., any time point, 30 sec cut-off): < 30 s
- time by which hypothermic effects completely resolved (C57BL/6 mice [3]; 5F-AKB48 3.2 mg/kg i.p.): ≤ 4 h
- reduction of rectal temperature below the physiological range (C57BL/6 mice [3]; 5F-AKB48 3.2 mg/kg i.p.): approximately 4 °
- duration of antinociceptive effects (still apparent) (C57BL/6 mice [4]; 5F-AKB48 3.2 mg/kg i.p.): at least 6 hours
- tail withdrawal latency, % of the maximum (C57BL/6 mice [4]; 5F-AKB48 3.2 mg/kg i.p., by 15 min post-injection): approximately 90%
- duration of hypothermic action (C57BL/6 mice [5]; [13]): at least 12 hours
- minimum core temperature below the physiological range (C57BL/6 mice [5]; [13]): approximately 7 °
- minimum core temperature below the physiological range (C57BL/6 mice [5]; [14]): approximately 7 °
- time by which hypothermic effects completely resolved (C57BL/6 mice [5]; [14]): ≤ 4 h
- area under the curve for hypothermic effects, 1-ABT-treated vs vehicle mice (C57BL/6 mice [5]; 5F-AKB48 3.2 mg/kg, 100 mg/kg 1-ABT pretreatment): approximately 5 fold
